Test [1] concerns MOLP-8 cells. Put plainly: MOLP-8 cell proliferation assay (alamarBlue). In kind it is cell-based. The conditions noted are these: inhibition of cell proliferation, 120 hours, human multiple myeloma cell line. How it is done:
In accordance with the invention, the ability of the substances to inhibit cell proliferation was determined Cell viability was determined by means of the alamarBlue® reagent (Invitrogen) in a Victor X3 Multilabel Reader (Perkin Elmer). The excitation wavelength was 530 nm and the emission wavelength […].
The MOLP-8 cells (DSMZ, ACC 569) were sown at a concentration of 4000 cells/well in 100 μl of growth medium (RPMI1640, 20% FCS) on 96-well microtitre plates.
After overnight incubation at 37° C., the fluorescence values were determined (CI values). Then the plates were treated with various substance dilutions (1E-5 M, 3E-6 M, 1E-6 M, 3E-7 M, 1E-7 M, 3E-8 M, 1E-8 M) and incubated at 37° C. over 96 hours (MOLM-13, B16F10 cells) or 120 hours (MOLP-8 cells). Subsequently, the fluorescence values were determined (CO values). For the data analysis, the CI values were subtracted from the CO values and the results were compared between cells which had been treated with various dilutions of the substance or only with buffer solution. The IC50 values (substance concentration needed for 50% inhibition of cell proliferation) were calculated therefrom.
MOLP-8 human multiple myeloma cell line

The target of test [2] is T1, BRD4 Bromo Domain 2 [BRD4(2)] (Homo sapiens, UniProt O60885).
T1 construct: N-terminally His6-tagged BRD4(2) (amino acids 357-445); made in house; host or cells: E. coli
Put plainly: BRD4(2)/acetylated peptide H4 binding assay (TR-FRET). The conditions noted are these: inhibition of interaction between His6-tagged BRD4(2) (amino acids 357-445) and acetylated histone H4 peptide. The source says: Protein-Protein Interaction Assay: BRD4/Acetylated Peptide H4 Binding Assay
2. Assay Description for BRD4 Bromo Domain 2 [BRD4(2)]
To assess the BRD4(2) binding strength of the substances described in this application, the ability thereof to inhibit the interaction between BRD4(2) and acetylated histone H4 in a dose-dependent manner was quantified.
For this purpose, a time-resolved fluorescence resonance energy transfer (TR-FRET) assay was used, which measures the binding between N-terminally His6-tagged BRD4(2) (amino acids 357-445) and a synthetic acetylated histone H4 (Ac-H4) peptide with sequence SGRGK(Ac)GGK(Ac)GLGK(Ac)GGAK(Ac)RHRKVLRDNGSGSK-biotin. The recombinant BRD4(2) protein produced in house according to Filippakopoulos et al., Cell, 2012, 149:214-231 was expressed in E. coli and purified by means of (Ni-NTA) affinity and (Sephadex G-75) size exclusion chromatography. The Ac-H4 peptide can be purchased, for example, from Biosyntan (Berlin, Germany).
In the assay, typically 11 different concentrations of each substance (0.1 nM, 0.33 nM, 1.1 nM, 3.8 nM, 13 nM, 44 nM, 0.15 μM, 0.51 μM, 1.7 μM, 5.9 μM and 20 μM) were analysed as duplicates on the same microtitre plate. For this purpose, 100-fold concentrated solutions in DMSO were prepared by serial dilutions (1:3.4) of a 2 mM stock solution into a clear, 384-well microtitre plate (Greiner Bio-One, Frickenhausen, Germany). From this, 50 nl were transferred into a black test plate (Greiner Bio-One, Frickenhausen, Germany). The test was started by the addition of 2 μl of a 2.5-fold concentrated BRD4(2) solution (final concentration typically 100 nM in the 5 μl of reaction volume) in aqueous assay buffer [50 mM HEPES pH 7.5, 50 mM sodium chloride (NaCl); 50 mM potassium fluoride (KF); 0.25 mM CHAPS and 0.05% serum albumin (BSA)] to the substances in the test plate. This was followed by a 10-minute incubation step at 22° C. for the pre-equilibration of putative complexes between BRD4(2) and the substances.
The mixture was then incubated in the dark at 22° C. for one hour and then at 4° C. for at least 3 hours and for no longer than overnight. The formation of BRD4(2)/Ac-H4 complexes was determined by the measurement of the resonance energy transfer from the streptavidin-Eu chelate to the anti-6His-XL665 antibody present in the reaction. For this purpose, the fluorescence emission was measured at 620 nm and 665 nm after excitation at 330-350 nm in a TR-FRET measuring instrument, for example a Rubystar or Pherastar (both from BMG Lab Technologies, Offenburg, Germany) or a Viewlux (Perkin-Elmer). The ratio of the emissions at 665 nm and at 622 nm was taken as an indicator of the amount of BRD4(2)/Ac-H4 complexes formed.
The data (ratios) obtained were normalized, with 0% inhibition corresponding to the mean from the measurements for a set of controls (typically 32 data points) in which all the reagents were present. In these, in place of test substances, 50 nl of DMSO (100%) were used Inhibition of 100% corresponded to the mean from the measurements for a set of controls (typically 32 data points) in which all the reagents except BRD4(2) were present. The IC50 was determined by regression analysis based on a 4-parameter equation (minimum, maximum, IC50, Hill; Y=max+(min−max)/(1+(X/IC50)Hill)).
In general terms: In TR-FRET formats the signal depends on donor and acceptor labels being close together.

In the case of `C[C@@H]1C(=O)N(C)c2ccc(Nc3ccc(C(=O)NC4CCN(C)CC4)cc3)cc2N1Cc1c(F)cccc1F` (stereo in doubt) [Example 39, 4-{[4-(2,6-difluorobenzyl)-1,3-dimethyl-2-oxo-1,2,3,4-tetrahydroquinoxalin-6-yl]amino}-N-(1-methylpiperidin-4-yl)benzamide], the IC50 – broadly, the point on the concentration scale where inhibition reaches its midpoint – in test [1] stood at 1740 nM; in test [2] it was 262 nM.
As for `C[C@@H]1C(=O)N(C)c2ccc(Nc3ccc(C(=O)NC4CCC(N5CCN(CC6CC6)CC5)CC4)cc3)cc2N1Cc1c(F)cccc1F` (stereo in doubt) [Example 40, N-{4-[4-(cyclopropylmethyl)piperazin-1-yl]cyclohexyl}-4-{[4-(2,6-difluorobenzyl)-1,3-dimethyl-2-oxo-1,2,3,4-tetrahydroquinoxalin-6-yl]amino}benzamide], the IC50 in test [1] stood at 6620 nM; in test [2], 386 nM.
The matching figures for `C[C@@H]1C(=O)N(C)c2ccc(Nc3ccc(C(=O)NC4CCCC4)cc3)cc2N1C1CCCC1` [Example 1, N-cyclopentyl-4-{[(3R)-4-cyclopentyl-1,3-dimethyl-2-oxo-1,2,3,4-tetrahydroquinoxalin-6-yl]amino}benzamide]: 1470 nM and 326 nM.
For `C[C@@H]1C(=O)N(C)c2ccc(Nc3ccc(C(=O)NC4CC4)cc3)cc2N1C1CCCC1` [Example 2, 4-{[(3R)-4-cyclopentyl-1,3-dimethyl-2-oxo-1,2,3,4-tetrahydroquinoxalin-6-yl]amino}-N-cyclopropylbenzamide], the IC50 in test [1] turned out to be 727 nM; in test [2], 222 nM.
In the same order, the values of `C[C@@H]1C(=O)N(C)c2ccc(Nc3ccc(S(=O)(=O)N(C)C)cc3)cc2N1C1CCCC1` [Example 3, 4-{[(3R)-4-cyclopentyl-1,3-dimethyl-2-oxo-1,2,3,4-tetrahydroquinoxalin-6-yl]amino}-N,N-dimethylbenzenesulphonamide] are 301 nM and 85 nM.
For `C[C@@H]1C(=O)N(C)c2ccc(Nc3ccc(C(=O)N4CCOCC4)cc3)cc2N1C1CCCC1` [Example 6, (3R)-4-cyclopentyl-1,3-dimethyl-6-{[4-(morpholin-4-ylcarbonyl)phenyl]amino}-3,4-dihydroquinoxalin-2(1H)-one], the figures for the IC50 in test [1] and in test [2] were 271 nM and 80 nM, respectively.
For `CC(C)NC(=O)c1ccc(Nc2ccc3c(c2)N(C2CCCC2)[C@H](C)C(=O)N3C)cc1` [Example 7, 4-{[(3R)-4-cyclopentyl-1,3-dimethyl-2-oxo-1,2,3,4-tetrahydroquinoxalin-6-yl]amino}-N-isopropylbenzamide], the IC50 in test [1] was 637 nM; in test [2], 159 nM.
`C[C@@H]1C(=O)N(C)c2ccc(Nc3ccc(C(=O)N(C)C)cc3)cc2N1C1CCCC1` [Example 8, 4-{[(3R)-4-cyclopentyl-1,3-dimethyl-2-oxo-1,2,3,4-tetrahydroquinoxalin-6-yl]amino}-N,N-dimethylbenzamide]: the IC50 in test [1] came to 521 nM; in test [2], 171 nM.
In the same order, the values of `C[C@@H]1C(=O)N(C)c2ccc(Nc3ccc(C(=O)NCC4COC4)cc3)cc2N1Cc1ccccc1` [Example 9, 4-{[(3R)-4-benzyl-1,3-dimethyl-2-oxo-1,2,3,4-tetrahydroquinoxalin-6-yl]amino}-N-(oxetan-3-ylmethyl)benzamide] are 139 nM and 62 nM.
`C[C@@H]1C(=O)N(C)c2ccc(Nc3ccc(C(=O)NC4CC4)cc3)cc2N1Cc1ccccc1` [Example 10, 4-{[(3R)-4-benzyl-1,3-dimethyl-2-oxo-1,2,3,4-tetrahydroquinoxalin-6-yl]amino}-N-cyclopropylbenzamide]: the values for the IC50 in test [1] and in test [2] were 260 nM and 64 nM, respectively.
In the same order, the values of `C[C@@H]1C(=O)N(C)c2ccc(Nc3ccc(C(=O)NC4CCN(C)CC4)cc3)cc2N1Cc1ccccc1` [Example 11, 4-{[(3R)-4-benzyl-1,3-dimethyl-2-oxo-1,2,3,4-tetrahydroquinoxalin-6-yl]amino}-N-(1-methylpiperidin-4-yl)benzamide] are 102 nM and 107 nM.
The matching figures for `C[C@@H]1C(=O)N(C)c2ccc(Nc3ccc(C(=O)N4CCOCC4)cc3)cc2N1Cc1ccccc1` [Example 12, (3R)-4-benzyl-1,3-dimethyl-6-{[4-(morpholin-4-ylcarbonyl)phenyl]amino}-3,4-dihydroquinoxalin-2(1H)-one]: 98 nM and 47 nM.
The matching figures for `C[C@@H]1C(=O)N(C)c2ccc(Nc3ccc(S(=O)(=O)N4CCOCC4)cc3)cc2N1Cc1ccccc1` [Example 13, (3R)-4-benzyl-1,3-dimethyl-6-{[4-(morpholin-4-ylsulphonyl)phenyl]amino}-3,4-dihydroquinoxalin-2(1H)-one]: 98 nM and 51 nM.
With `C[C@@H]1C(=O)N(C)c2ccc(Nc3ccc(S(=O)(=O)N(C)C)cc3)cc2N1Cc1ccccc1` [Example 14, 4-{[(3R)-4-benzyl-1,3-dimethyl-2-oxo-1,2,3,4-tetrahydroquinoxalin-6-yl]amino}-N,N-dimethylbenzenesulphonamide], the IC50 was 115 nM in test [1] and 78 nM in test [2].
The matching figures for `C[C@@H]1C(=O)N(C)c2ccc(Nc3ccc(S(=O)(=O)N4CCN(C)CC4)cc3)cc2N1Cc1ccccc1` [Example 15, (3R)-4-benzyl-1,3-dimethyl-6-({4-[(4-methylpiperazin-1-yl)sulphonyl]phenyl}amino)-3,4-dihydroquinoxalin-2(1H)-one]: 109 nM and 51 nM.
For `C[C@@H]1C(=O)N(C)c2ccc(Nc3ccc(C(=O)N4CC5(CCS5(=O)=O)C4)cc3)cc2N1Cc1ccccc1` [Example 16, (3R)-4-benzyl-6-({4-[(1,1-dioxido-1-thia-6-azaspiro[3.3]hept-6-yl)carbonyl]phenyl}amino)-1,3-dimethyl-3,4-dihydroquinoxalin-2(1H)-one], the IC50 was 96 nM in test [1] and 97 nM in test [2].
The matching figures for `COc1ccc(CN2c3cc(Nc4ccc(C(=O)NC5CCN(C)CC5)cc4)ccc3N(C)C(=O)[C@H]2C)cc1` [Example 17, 4-{[(3R)-4-(4-methoxybenzyl)-1,3-dimethyl-2-oxo-1,2,3,4-tetrahydroquinoxalin-6-yl]amino}-N-(1-methylpiperidin-4-yl)benzamide]: 69 nM and 83 nM.
The matching figures for `COc1ccc(CN2c3cc(Nc4ccc(C(=O)N5CCOCC5)cc4)ccc3N(C)C(=O)[C@H]2C)cc1` [Example 18, (3R)-4-(4-methoxybenzyl)-1,3-dimethyl-6-{[4-(morpholin-4-ylcarbonyl)phenyl]amino}-3,4-dihydroquinoxalin-2(1H)-one]: 148 nM and 111 nM.
